Assays:
MV-4-11 cells = assay: Cell growth inhibition assay on AML cancer cells (CellTiter 96); assay type: cell-based; details: Homo sapiens, MV4-11; cell growth inhibition on AML cancer cells, MV-4-11; read-out: MV-4-11, GI50
Experimental: The lower GI50 value means the higher inhibition activity.
Cell Growth Inhibition Activity on AML Cancer Cells (Cell Growth Inhibition Assay)
Cell growth Inhibition assay was performed to investigate the rate of inhibition of cell proliferation by the test compounds. MV-4-11 (human, Acute Myeloid Leukemia cell line) cells were cultured in Iscove's modified Dulbecco's medium (IMDM) including 10% fetal bovine serum (FBS), 1× penicillin/streptomycin (10,000 units/ml Penicillin, […] Streptomycin in 0.85% NaCl). MV-4-11 cells were harvested with IMDM medium and 5×10^4 cells/well were transferred to each well of 96 well culture plates (Nunc, #167008). The test compounds were treated with the serial dilution and duplicated for each concentration. For the serial dilution, the test compounds were repeatedly diluted with the same volume of media onto 96-well assay block (costar, #3956). After the dilution, each compound was added to each well. The background absorbance was also measured during the test compounds treatment by adding the IMDM media in replacement of test compound to the negative control plate. The plates were incubated for 3 days (72 hours) at 37° C. in the humidified incubator containing 5% CO2. On the last day, 20 μL of CellTiter 96 Aqueous One Solution (Promega #G3581) was added to the culture in each well and the plates were incubated for a few hours at 37° C. in the humidified incubator containing 5% CO2. After the incubation, the absorbance of each cell was measured at 490 nm using an EnVision (Perkinelmer, USA). The GI50 values were calculated using a Prism 3.0 program.

[1] = biological target: T1, cDNA-expressed human hepatic CYP3A4 (Homo sapiens, UniProt P08684); assay: P450 CYP3A4 inhibitory activity screening (BFC substrate, fluorescence); assay type: biochemical; details: P450 CYP3A4 inhibitory activity screening, fluorescent assay; read-out: CYP3A4 inhibition, IC50 (μM) fluorescent assay
T1 construct: purchased BD Gentest 456202
T1 sequence (P08684 whole entry): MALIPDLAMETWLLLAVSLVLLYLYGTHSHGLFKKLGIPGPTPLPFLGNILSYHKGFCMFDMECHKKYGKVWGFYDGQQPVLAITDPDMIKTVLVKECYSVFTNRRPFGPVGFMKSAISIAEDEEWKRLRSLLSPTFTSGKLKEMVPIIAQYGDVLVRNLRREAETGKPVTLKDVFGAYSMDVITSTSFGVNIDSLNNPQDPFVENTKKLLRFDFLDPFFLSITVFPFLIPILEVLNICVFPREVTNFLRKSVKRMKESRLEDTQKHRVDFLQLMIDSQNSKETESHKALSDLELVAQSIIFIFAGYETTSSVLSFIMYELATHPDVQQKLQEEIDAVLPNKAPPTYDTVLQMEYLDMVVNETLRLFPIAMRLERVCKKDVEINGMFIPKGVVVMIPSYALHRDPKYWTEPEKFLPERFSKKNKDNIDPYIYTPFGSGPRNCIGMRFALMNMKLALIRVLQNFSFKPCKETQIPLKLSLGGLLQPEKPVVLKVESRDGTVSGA
Experimental: P450 CYP3A4 Inhibitory Activity Screening
Assay was conducted in a 200 μL volume in 96-well microtiter plates using cDNA-expressed human hepatic CYP3A4 (supersome, BD Gentest™ #456202). 7-Benzyloxy-4-trifluoromethyl-coumarin (BFC) was used as a substrate for CYP3A4. Test articles and substrate BFC were dissolved in 100% acetonitrile. The final volume of acetonitrile in the incubation mixture was less than 1% (volume/volume). Potassium phosphate buffer (pH 7.4, final concentration 0.1 M), MgCl2 (final concentration 8.3 mM), EDTA (final concentration 1.67 mM), a test article stock solution, a CYP3A4 supersome and NADPH (final concentration 0.25 mM) were added to each well. The reaction was initiated by the addition of substrate (BFC, final concentration 30 µM) after a 10 min pre-incubation at 37° C. After 10 min incubation at 37° C., the reaction was terminated by the addition of 75 μL of acetonitrile:0.5 M Tris-base=4:1 (volume/volume). Thereafter, Fluorescent signal was measured using a fluorometer. BFC metabolite, 7-hydroxy-4-trifluoromethyl-coumarin, was measured using an excitation wavelength of 409 nm and an emission wavelength of 530 nm.

GI50 (MV-4-11 cells) [nM]	IC50 [1] [µM]	SMILES
190	–	C=CCN1CC(=O)N2[C@@H](Cc3ccc(O)cc3)C(=O)N(Cc3cccc4c3ncn4CC(N)=O)C[C@@H]2N1C(=O)NCc1ccccc1 [compound 1]
600	–	C=CCN1CC(=O)N2[C@@H](Cc3ccc(O)cc3)C(=O)N(Cc3cccc4c3OC(F)(F)O4)C[C@@H]2N1C(=O)NCc1ccccc1 [compound 2]
180	–	C=CCN1CC(=O)N2[C@@H](Cc3ccc(O)cc3)C(=O)N(Cc3csc4ccccc34)C[C@@H]2N1C(=O)NCc1ccccc1 [compound 3]
40	–	C=CCN1CC(=O)N2[C@@H](Cc3ccc(O)cc3)C(=O)N(Cc3cccc4c(C(C)=O)c[nH]c34)C[C@@H]2N1C(=O)NCc1ccccc1 [compound 6]
1320	–	C=CCN1CC(=O)N2[C@@H](Cc3ccc(O)cc3)C(=O)N(Cc3ccc(OC)cc3F)C[C@@H]2N1C(=O)NCc1ccccc1 [compound 10]
1970	–	C=CCN1CC(=O)N2[C@@H](Cc3ccc(O)cc3)C(=O)N(Cc3ccc(OC)c(Cl)c3)C[C@@H]2N1C(=O)NCc1ccccc1 [compound 11]
2990	–	C=CCOc1ccc(CN2C[C@H]3N(C(=O)CN(CC=C)N3C(=O)NCc3ccccc3)[C@@H](Cc3ccc(O)cc3)C2=O)cc1 [compound 12]
2010	–	C=CCN1CC(=O)N2[C@@H](Cc3ccc(O)cc3)C(=O)N(Cc3ccccc3N3CCCC3)C[C@@H]2N1C(=O)NCc1ccccc1 [compound 13]
160	–	C=CCN1CC(=O)N2[C@@H](Cc3ccc(O)cc3)C(=O)N(Cc3ccccc3SC)C[C@@H]2N1C(=O)NCc1ccccc1 [compound 14]
630	–	C=CCN1CC(=O)N2[C@@H](Cc3ccc(O)cc3)C(=O)N(Cc3cccc(C(C)(C)C)c3OC)C[C@@H]2N1C(=O)NCc1ccccc1 [compound 16]
360	–	C=CCN1CC(=O)N2[C@@H](Cc3ccc(O)cc3)C(=O)N(Cc3cccc(C(N)=O)c3)C[C@@H]2N1C(=O)NCc1ccccc1 [compound 17]
360	–	C=CCN1CC(=O)N2[C@@H](Cc3ccc(O)cc3)C(=O)N(Cc3cccc(C(=O)NOC)c3)C[C@@H]2N1C(=O)NCc1ccccc1 [compound 18]
450	–	C=CCN1CC(=O)N2[C@@H](Cc3ccc(O)cc3)C(=O)N(Cc3cccc(C(=O)NCCO)c3)C[C@@H]2N1C(=O)NCc1ccccc1 [compound 19]
2240	–	C=CCN1CC(=O)N2[C@@H](Cc3ccc(O)cc3)C(=O)N(Cc3ccc(OC)c(-c4ccncc4)c3)C[C@@H]2N1C(=O)NCc1ccccc1 [compound 20]
300	–	C=CCN1CC(=O)N2[C@@H](Cc3ccc(O)cc3)C(=O)N(Cc3ccc(F)c(Br)c3)C[C@@H]2N1C(=O)NCc1ccccc1 [compound 21]
740	–	C=CCN1CC(=O)N2[C@@H](Cc3ccc(O)cc3)C(=O)N(Cc3cccc(-c4cccnc4OC)c3)C[C@@H]2N1C(=O)NCc1ccccc1 [compound 22]
960	–	C=CCN1CC(=O)N2[C@@H](Cc3ccc(O)cc3)C(=O)N(Cc3cccc(C(=O)NNC(=O)OC(C)(C)C)c3)C[C@@H]2N1C(=O)NCc1ccccc1 [compound 23]
2030	–	C=CCN1CC(=O)N2[C@@H](Cc3ccc(O)cc3)C(=O)N(Cc3cccc(C(=O)NN)c3)C[C@@H]2N1C(=O)NCc1ccccc1 [compound 24]
240	–	C=CCN1CC(=O)N2[C@@H](Cc3ccc(O)cc3)C(=O)N(Cc3ccc(F)c(-c4cccnc4)c3)C[C@@H]2N1C(=O)NCc1ccccc1 [compound 25]
780	–	C=CCN1CC(=O)N2[C@@H](Cc3ccc(O)cc3)C(=O)N(Cc3cccc(C(=O)N4CCCCC4)c3)C[C@@H]2N1C(=O)NCc1ccccc1 [compound 26]
1350	–	C=CCN1CC(=O)N2[C@@H](Cc3ccc(O)cc3)C(=O)N(Cc3ccccc3-n3cnnn3)C[C@@H]2N1C(=O)NCc1ccccc1 [compound 28]
390	–	C=CCN1CC(=O)N2[C@@H](Cc3ccc(O)cc3)C(=O)N(Cc3cccc(C(=O)NC)c3)C[C@@H]2N1C(=O)NCc1ccccc1 [compound 29]

GI50 (MV-4-11 cells) [nM]	IC50 [1] [µM]	SMILES
820	–	C=CCN1CC(=O)N2[C@@H](Cc3ccc(O)cc3)C(=O)N(Cc3cccc(C(=O)N(C)C)c3)C[C@@H]2N1C(=O)NCc1ccccc1 [compound 30]
5750	–	C=CCN1CC(=O)N2[C@@H](Cc3ccc(O)cc3)C(=O)N(Cc3cccc(C(N)=O)c3[N+](=O)[O-])C[C@@H]2N1C(=O)NCc1ccccc1 [compound 31]
> 50000	–	C=CCN1CC(=O)N2[C@@H](Cc3ccc(O)cc3)C(=O)N(Cc3ccc(CP(=O)(O)O)cc3)C[C@@H]2N1C(=O)NCc1ccccc1 [compound 32]
650	–	C=CCN1CC(=O)N2[C@@H](Cc3ccc(O)cc3)C(=O)N(Cc3cccc(C(=O)NCCCOCCCC)c3)C[C@@H]2N1C(=O)NCc1ccccc1 [compound 33]
–	45.1	C=CCN1CC(=O)N2[C@@H](Cc3ccc(O)cc3)C(=O)N(Cc3ccnc(C(N)=O)c3)C[C@@H]2N1C(=O)NCc1ccccc1 [compound 44]
–	> 10	C=CCN1CC(=O)N2[C@@H](Cc3ccc(O)cc3)C(=O)N(Cc3cccc4c3nc(C(F)(F)F)n4C)C[C@@H]2N1C(=O)NCc1ccccc1 [compound 45]
–	> 50	C=CCN1CC(=O)N2[C@@H](Cc3ccc(O)cc3)C(=O)N(Cc3cccc(N4CCCC4=O)c3)C[C@@H]2N1C(=O)NCc1ccccn1 [compound 46]
–	> 50	C=CCN1CC(=O)N2[C@@H](Cc3ccc(O)cc3)C(=O)N(Cc3cccc4c3ncn4C)C[C@@H]2N1C(=O)NCc1ccccn1 [compound 47]
–	> 50	C=CCN1CC(=O)N2[C@@H](Cc3ccccc3)C(=O)N(Cc3cccc(C(=O)O)c3)C[C@@H]2N1C(=O)NCc1ccccc1 [compound 48]
–	> 50	O=C(O)c1cccc(CN2C[C@H]3N(C(=O)CN(Cc4ccccc4)N3C(=O)NCc3ccccc3)[C@@H](Cc3ccc(O)cc3)C2=O)c1 [compound 49]
–	> 50	C=CCN1CC(=O)N2[C@@H](Cc3ccc(O)cc3)C(=O)N(Cc3cccc(C(=O)O)c3)C[C@@H]2N1C(=O)NCc1ccc(Cl)cc1Cl [compound 50]
–	> 50	C=CCN1CC(=O)N2[C@@H](Cc3ccc(O)cc3)C(=O)N(Cc3cccc(C(=O)N[C@@H](CCC(=O)O)C(=O)O)c3)C[C@@H]2N1C(=O)NCc1ccccc1 [compound 51]
–	> 50	C=CCN1CC(=O)N2[C@@H](Cc3ccc(O)cc3)C(=O)N(Cc3cccc(C(N)=O)n3)C[C@@H]2N1C(=O)NCc1ccccc1 [compound 52]
–	> 50	C=CCN1CC(=O)N2[C@@H](Cc3ccc(O)cc3)C(=O)N(Cc3cccc(C(N)=O)c3)C[C@@H]2N1C(=O)NCc1ccccc1 [compound 53]
–	> 50	C=CCN1CC(=O)N2[C@@H](Cc3ccc(O)cc3)C(=O)N(Cc3cccc(C(=O)O)c3)C[C@@H]2N1C(=O)NCc1ccccc1 [compound 54]
–	> 50	C=CCN1CC(=O)N2[C@@H](Cc3ccc(OS(N)(=O)=O)cc3)C(=O)N(Cc3cccc(C(=O)O)c3)C[C@@H]2N1C(=O)NCc1ccccc1 [compound 55]
–	> 50	C=CCN1CC(=O)N2[C@@H](Cc3ccc(O)cc3)C(=O)N(Cc3cccc(C(=O)O)n3)C[C@@H]2N1C(=O)NCc1ccccc1 [compound 56]
–	> 50	C=CCN1CC(=O)N2[C@@H](Cc3ccc(O)cc3)C(=O)N(Cc3ccc(CP(=O)(O)O)cc3)C[C@@H]2N1C(=O)NCc1ccccc1 [compound 57]
–	> 50	C=CCN1CC(=O)N2[C@@H](Cc3ccc(O)cc3)C(=O)N(Cc3cccc4c3ncn4CC(N)=O)C[C@@H]2N1C(=O)NCc1ccccc1 [compound 58]
–	2.63	C=CCN1CC(=O)N2C(Cc3ccc(O)cc3)C(=O)N(Cc3cccc4c(-c5ccccc5)cn(S(=O)(=O)c5ccccc5)c34)C[C@@H]2N1C(=O)NCc1ccccc1 (stereo partly shown) [compound 59]
–	4.84	C=CCN1CC(=O)N2[C@@H](Cc3ccc(O)cc3)C(=O)N(Cc3cccc4c(C(C)=O)c[nH]c34)C[C@@H]2N1C(=O)NCc1ccccc1 [compound 60]
–	5.92	C=CCN1CC(=O)N2[C@@H](Cc3ccc(O)cc3)C(=O)N(Cc3cccc4c(C(=O)C5CC5)c[nH]c34)C[C@@H]2N1C(=O)NCc1ccccc1 [compound 61]

SMILES	GI50 (MV-4-11 cells) [nM]	IC50 [1] [µM]
C=CCN1CC(=O)N2[C@@H](Cc3ccc(O)cc3)C(=O)N(Cc3cccc(OC)c3OC)C[C@@H]2N1C(=O)NCc1ccccc1 [compound 15]	2140	–
C=CCN1CC(=O)N2[C@@H](Cc3ccc(O)cc3)C(=O)N(Cc3cccc(C(=O)N4CCCC4)c3)C[C@@H]2N1C(=O)NCc1ccccc1 [compound 27]	1110	–
